Entries after “also recorded” stand apart in the source; their conditions may differ.
Assays:
[1] = molecular target: T1, IRT1 (Arabidopsis thaliana, UniProt Q38856); test: 55Fe uptake in fet3 fet4 yeast expressing IRT1; type: cell-based; details: for effect on the rate of iron uptake by IRT1: 10 μM metal, 10 times the radiolabeled iron, Fe(II) with 1 mM ascorbate, 10 min
T1 construct: contain a single 1017 bp open reading frame capable of encoding a polypeptide of 339 amino acids; expressed in transfected cells; host or cells: S. cerevisiae fet3 fet4 strain DEY1453 carrying pIRT-1 (pFL61 library vector, phosphoglycerate kinase promoter)
T1 sequence (Q38856 9-347 limits assumed): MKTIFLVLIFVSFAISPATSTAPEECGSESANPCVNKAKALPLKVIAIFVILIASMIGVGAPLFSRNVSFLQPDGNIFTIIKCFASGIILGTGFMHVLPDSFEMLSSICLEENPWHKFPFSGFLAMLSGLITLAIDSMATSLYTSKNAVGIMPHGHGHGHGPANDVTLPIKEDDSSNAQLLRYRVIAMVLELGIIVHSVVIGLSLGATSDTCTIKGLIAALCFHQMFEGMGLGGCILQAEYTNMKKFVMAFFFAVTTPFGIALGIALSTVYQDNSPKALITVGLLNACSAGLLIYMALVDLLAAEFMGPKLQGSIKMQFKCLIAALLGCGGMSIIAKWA
Experimental: Iron uptake assays using ^55FeCl3 (Amersham, Arlington Heights, Ill.) were performed as described (Eide, D. et al. (1992) J. Biol. Chem. 267: 20774-20781) except that MGN (10 mM Mes/2% glucose/1 mM nitrilotriacetic acid, pH 6.1) was used for the assay buffer. Where noted, 1 mM sodium ascorbate was added to reduce Fe(III) to Fe(II). Stock solutions of the chloride salt of each metal (except for iron) were prepared in water at a concentration of 100 mM and diluted into MGN to a final concentration of 10 μM before addition of the cells. The ^56FeCl3 stock was 50 mM prepared in 0.1 M HCl. The statistical significance of differences in values relative to controls was determined using STATVIEW software (Abacus Concepts, Berkeley, Calif.). Data was subjected to one-way analysis of variance (ANOVA) followed by a Scheffe's test.
To determine if IRT1 encodes an iron transporter, ^55Fe uptake rates were examined in a fet3 fet4 strain expressing IRT1. Little or no uptake was detected at 0° C. for either IRT1-expressing or untransformed control cells (FIG. 2A). The fet3 fet4 mutant strain DEY1453 (circles) and DEY1453 transformed with pIRT-1 (squares) were grown to exponential phase in SD glucose and assayed for iron uptake with ^55Fe. (A) Time- and temperature-dependence of iron accumulation assayed in MGN with 1 mM ascorbate and 5 μM ^55FeCl3 assayed at 30° C. (open symbols) or 0° C. (solid symbols). The dashed line marked with open triangles represents the IRT1-dependent accumulation, i.e., the accumulation of iron by the untransformed strain at 30° C. subtracted from the accumulation of the pIRT-1-bearing strain at 30° C. […] The IRT1-dependent rate was ≈3-fold higher than the control uptake rate. No increased uptake was apparent in strains bearing either of two randomly selected clones from the library, indicating the dependence of these uptake effects on expression of IRT1. The iron uptake activity dependent on IRT1 expression was also concentration-dependent and saturable (FIG. 2B). The same strains as in A were assayed for iron uptake rates for 10 min over a range of concentrations. The dashed lines marked with open triangles represents the IRT1-dependent uptake rate, i.e., background uptake rate of the untransformed strain subtracted from the corresponding rate of the pIRT-1-bearing strains. (Inset) Eadie-Hofstee plot of the IRT1-dependent uptake data. Each point represents the mean of three experiments each performed in duplicate. The standard deviation within each experiment was less that 20% of the corresponding mean.
The experiments described above were conducted with iron supplied as Fe(II), i.e., in the presence of ascorbate, an agent capable of reducing Fe(III) to Fe(II). To determine if Fe(II) is the preferred substrate over Fe(III), assays were carried out in the absence of ascorbate where iron is supplied to the cells as Fe(III). […] The fet3 fet4 mutant strain DEY1453 and DEY1453 transformed with pIRT-1 were grown to exponential phase is SD glucose and assayed for iron uptake with 1 μM FeCl3 in MGN for 10 min. The values shown are the IRT1-dependent rates, i.e., the untransformed strain control values were subtracted from the DEY1453 pIRT-1 values and represent the means of four replicates. The asterisks indicate significant of differences from the control values (P<0.05). Assays were performed in the absence [Fe(III)] or presence [Fe(II)] of 1 mM ascorbate. […] Although yeast are capable of reducing Fe(III) to Fe(II) through the action of plasma membrane Fe(III) reductases, this rate of cell-mediated reduction is slower than reduction by ascorbate and therefore may be rate-limiting for IRT1-dependent uptake. To assess if metals other than iron are potential substrates for IRT1, several transition metals were tested for their ability to inhibit accumulation of iron in IRT1-expressing cells (FIG. 3B). Assays were conducted in the absence (−) or presence of 10 μM metal. […]

[2] = molecular target: T2, low affinity zinc uptake system (Zrt2p) (Saccharomyces cerevisiae, UniProt Q12436); type: cell-based
T2 construct: endogenous in cells; host or cells: S. cerevisiae ZHY1 (zrt1::LEU2) and zinc-replete DY1457; some values come from ZHY1 carrying pMC4 (multicopy genomic ZRT2) or pOE2 (ZRT2 ORF under GAL1)
Experimental: (§1) Zinc uptake assays were performed as described previously for iron uptake (Eide et al. J. Biol. Chem. 267:20774-20781) except that ^65ZnCl2 (Amersham Corp., Arlington Heights, Ill.) and LZM-EDTA were substituted for ^59FeCl3 and LIM-EDTA. Cells were incubated at 30° C. with ^65Zn for five minutes, filtered, and washed with 10 ml ice-cold SSW. Cell-associated radioactivity was measured by liquid scintillation. Kinetic values were derived using KinetAsyst software (IntelliKinetics, Princeton, N.J.). Zinc accumulation was measured in cells grown in LZM medium supplemented with […] ^65Zn plus nonradioactive zinc to the indicated final concentration. Aliquots (0.5 ml) were filtered, washed with 10 ml ice-cold SSW, and counted by liquid scintillation. b-galactosidase activity was assayed as described by Guarente (Guarante, L. (1983) Methods Enzymol101:181-191).
(§2) Zinc uptake assays were performed as described previously for iron uptake (Eide et al. (1992) J. Biol. Chem. 267:20774-20781) except that ^65ZnCl2 (Amersham) and LZM-EDTA were substituted for ^59FeCI3 and LIM-EDTA, respectively. Cells were incubated for 5 minutes in LZM-EDTA plus the indicated concentration of ^65Zn, collected on glass fiber filters (Schleicher and Schuell), washed with 10 ml ice-cold SSW (1 mM EDTA, 20 mM trisodium citrate, 1 mM KH2PO4, 1 mM CaCl2, 5 mM MgSO4, 1 mM NaCl pH 4.2), and cell-associated radioactivity was measured by liquid scintillation counting. Cells were starved for glucose by incubating them in LZM-EDTA prepared without glucose for one hour at 30° C. prior to assay. Michaelis-Menten kinetic values were determined using […] software (Intellikinetics, Princeton, N.J.). Stock solutions of the chloride salts of Co, Cu, Mg, Mn, and Ni were prepared in distilled water at a concentration of 100 mM. The nonradioactive ZnCl2 stock was prepared at 100 mM in 0.02 N HCl and the FeCl3 stock was prepared at 50 mM in 0.1 N HCl. The statistical significance of the differences of values relative to controls was determined with one-way analysis of variance (ANOVA) followed by a Dunnett multiple comparison test. β-galactosidase activity was assayed in cells harvested at an OD600 of 0.5-2.0 as described by Guarente (Guarente, L. (1983) Methods Enzymol. 101:181-191) and activity is expressed as the change in absorbance at 420 nm×1000 divided by (min×ml of culture used×OD600 of the culture). Cell-associated zinc was measured in parallel cultures supplemented with tracer amounts of ^65Zn (10 μM) and nonradioactive zinc to the indicated final concentration. Aliquots (0.5 ml) were filtered, washed with 10 ml ice-cold SSW, and radioactivity measured by liquid scintillation.
(§3) To determine if ZRT1 plays a role in zinc uptake, the biochemical properties of this process in wild type cells were first characterized. […] Wild type (FIG. 10, DY1457, squares) and zrt1 mutant (FIG. 10, ZHY1, circles) cells were grown to exponential phase in zinc-limited (open symbols, FIG. 10) and zinc-replete (FIG. 10, closed symbols) media and assayed for zinc uptake rate over a range ZnSO4 concentrations. Zinc-limited media was LZM+10 μM zinc for the wild type and LZM+500 μM zinc for the mutant. Zinc-replete conditions were LZM+1000 μM for both strains. ZHY1(pOE1) cells (FIG. 10, triangles) were grown in zinc-replete SDgal medium.
(§4) Mutant zrt1 (ZHY1) cells were grown in LZM supplemented with 1 mM ZnCl2. Cells were incubated with 10 μM ^65Zn for the indicated times at either […]

[3] = molecular target: T3, high affinity zinc uptake system (Zrt1p) (Saccharomyces cerevisiae, UniProt P32804); test: 65Zn uptake assay in yeast, high affinity zinc uptake system; type: cell-based
T3 construct: endogenous in cells; host or cells: S. cerevisiae DY1457 (wild type, zinc-limited) and ZHY2 (zrt2); one kinetic value comes from ZHY1 carrying pOE1 (ZRT1 ORF under the GAL1 promoter)
Experimental: as §1, §2, §3, §4

[4] = test system: zrt1 mutant (ZHY1) cells; type: cell-based, Saccharomyces cerevisiae; details: 500 μM metal added to iron-limiting medium LIM (1 mM EDTA)
Experimental: Strains used were DY1457 (MATα ade6 can1 his3 leu2 trp1 ura3) and ZHY1 (MaTα ade6 can1 his3 leu2 trp1 ura3 zrt1:: LEU2). Yeast were grown in standard culture media (SD, YPD) (Eide, D., Davis-Kaplan S., Jordan, I., Sipe, D., and Kaplan, J. (199: 2) J. Biol. Chem. 267, 20774-20781) supplemented with necessary auxotrophic requirements and either 2% glucose or 2% galactose. A zinc-limiting medium (LZM) was prepared in the same manner as LIM (Eide and Guarenete (1992) J. Gen. Microbiol. 138:347-354) except that […]. Cell number in liquid cultures was determined by measuring the optical density of cell suspensions at 600 nm (A600) and converting to cell number with a standard curve.
Strains used were DY1457 (MATα ade6 can1 his3 leu2 trp1 ura3), ZHY1 (AMTα ade6 can1 his3 leu2 trp1 ura3 zrt1::LEU2), ZHY2 (MATα ade6 can1 his3 leu2 trp1 ura3 zrt2::HIS3), and ZHY3 (MATα ade6 can1 his3 leu2 trp1 ura3 zrt1::LEU2 zrt2::HIS3). Yeast were grown in YP or SD media (Sherman et al. (1986) Methods in Yeast Genetics, Cold Spring Harbor Laboratory, Cold Spring Harbor, N.Y.) supplemented with necessary auxotrophic requirements and either 2% glucose or 2% galactose. Zinc-limiting YP and SD agar plates contained either bathophenanthroline disulfonate (BPS, 200 μM) or EDTA (1 mM), respectively. A liquid zinc-limiting medium (low zinc medium, LZM) was prepared in the same manner as low iron medium (LIM) (Eide and Guarente (1992) J. Gen. Microbiol. 138:347-354) except that the […]. LZM is similar in composition to SD medium with two modifications essential to controlling zinc availability. First, 1 mM EDTA is added to provide buffering for the concentration of free metal ions. Second, the medium is pH-buffered at 4.2 with 20 mM citrate to prevent pH changes that could alter the metal binding ability of EDTA. LZM was also prepared without EDTA ([…]) which is less zinc-limiting because the predominant chelator in this medium, citrate, binds zinc with less affinity than does EDTA. The concentrations of free (i.e. unchelated) zinc were calculated using MAXCHELATOR software (Chris Patton, Stanford University). Cell number in liquid cultures was determined by measuring the absorbance of cell suspensions at 600 nm (OD600) and converting to cell number with a standard curve.
To examine the function of ZRT1, a disruption mutation, zrt1::LEU2, was constructed by inserting the LEU2 gene into the center of ZRT1 (FIG. 6). This zrt1 disruption allele was then introduced into a haploid yeast strain. […] Because of the high EDTA concentration in LIM (1 mM), this medium is expected to have low available levels of other metals that are bound tightly by this chelator. Supplements of other metals were tested for improved growth of the zrt1 mutant in LIM. […] To study this effect further, a low zinc medium, LZM, was developed in which cell growth could be limited by zinc deficiency and the growth response of the wild type and zrt1 mutant strains to increasing levels of supplemented zinc was examined. Wild type (DY1457, squares) and zrt1 mutant (ZHY1, circles) cells were inoculated into LZM supplemented with the indicated amount of ZnSO4 and grown for 16 hours prior to cell number determination. […] Mutant zrt1 cells attained this same maximum number of cell divisions only with zinc supplements of 750 μM or more, i.e. a 75-fold increase in the zinc requirement of the zrt1 mutant compared to the wild type.
To further assess the role of the low affinity system as a source of zinc, growth of wild type and zrt2 cells in a zinc-limiting medium, LZM, supplemented with increasing amounts of zinc was examined. The same strains as in FIG. 15 were grown for six hours in SD glucose medium, harvested, washed in LZM, and reinoculated into either LZM (FIG. 15A) or LZM-EDTA (FIG. 15B) supplemented with the indicated concentrations of ZnCl2 ([Zn]T). […]

[5] = 1 mM ascorbate, control experiments

T2 sequence (Q12436 whole entry): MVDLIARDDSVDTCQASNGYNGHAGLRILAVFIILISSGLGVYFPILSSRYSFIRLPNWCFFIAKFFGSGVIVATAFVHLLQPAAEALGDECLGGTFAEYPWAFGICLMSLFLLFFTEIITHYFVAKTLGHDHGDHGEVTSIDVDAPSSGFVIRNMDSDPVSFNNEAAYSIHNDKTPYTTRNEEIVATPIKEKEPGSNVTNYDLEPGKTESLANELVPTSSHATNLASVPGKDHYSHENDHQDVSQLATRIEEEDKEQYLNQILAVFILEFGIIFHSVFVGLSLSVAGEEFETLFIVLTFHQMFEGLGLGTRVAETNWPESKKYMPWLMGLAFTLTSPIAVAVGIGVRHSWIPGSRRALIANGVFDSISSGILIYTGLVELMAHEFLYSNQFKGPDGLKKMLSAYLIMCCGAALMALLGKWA
T3 sequence (P32804 whole entry): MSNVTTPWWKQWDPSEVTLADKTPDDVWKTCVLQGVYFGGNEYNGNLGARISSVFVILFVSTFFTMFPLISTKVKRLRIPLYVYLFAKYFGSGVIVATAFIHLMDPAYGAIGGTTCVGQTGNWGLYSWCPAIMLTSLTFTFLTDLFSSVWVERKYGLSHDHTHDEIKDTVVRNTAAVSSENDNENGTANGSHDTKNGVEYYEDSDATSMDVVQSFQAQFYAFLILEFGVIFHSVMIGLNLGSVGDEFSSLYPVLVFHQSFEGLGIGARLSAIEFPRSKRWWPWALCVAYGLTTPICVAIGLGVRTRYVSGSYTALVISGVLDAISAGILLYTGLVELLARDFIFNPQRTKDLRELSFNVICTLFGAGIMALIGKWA

Compound: [Cl][Cd][Cl] [Cd]
- inhibition of IRT1-mediated Fe(II) uptake in yeast (summary statement) [1]: inhibitors of IRT1-mediated Fe(II) uptake; also recorded: strongly inhibited
- effect on the rate of iron uptake by IRT1 [1]: potent inhibitors

Compound: [K+] [K^+]
- inhibition of zinc uptake by the low affinity system ([2]; high extracellular K+ (100 mM)): not inhibited

Compound: [Cl-].[Cl-].[Mg+2] [Mg]
- effect on zinc uptake by the high affinity system ([3]; 20 μM added metal, 2 μM 65Zn, five minutes, zinc-limited wild type): unaffected
- effect on zinc uptake by the low affinity system ([2]; 200 μM added metal, 20 μM 65Zn, five minutes, zrt1 mutant cells): did not diminish zinc uptake
- effect on zrt1 growth in LIM [4]: no effect

Compound: [Cl-].[Cl-].[Sr+2] [Sr]
- effect on the rate of iron uptake by IRT1 [1]: no significant effect

Compound: O=C1O[C@H]([C@@H](O)CO)C([O-])=C1O.[Na+] [ascorbate, sodium ascorbate, reference compound]
- effect on the rate of zinc uptake [3, 5]: no effect
- effect on the rate of zinc uptake [2, 5]: no effect
